How the values were obtained:
[1] = target: T1, C5a1 (Homo sapiens, UniProt P21730); test: BRET β-arrestin 2 recruitment by C5a1 in HEK293 cells; type: cell-based; set-up: expressed in transfected cells; host or cells: HEK293 (transient); settings: P32 or P59 100 μM
T1 sequence (P21730 1-350): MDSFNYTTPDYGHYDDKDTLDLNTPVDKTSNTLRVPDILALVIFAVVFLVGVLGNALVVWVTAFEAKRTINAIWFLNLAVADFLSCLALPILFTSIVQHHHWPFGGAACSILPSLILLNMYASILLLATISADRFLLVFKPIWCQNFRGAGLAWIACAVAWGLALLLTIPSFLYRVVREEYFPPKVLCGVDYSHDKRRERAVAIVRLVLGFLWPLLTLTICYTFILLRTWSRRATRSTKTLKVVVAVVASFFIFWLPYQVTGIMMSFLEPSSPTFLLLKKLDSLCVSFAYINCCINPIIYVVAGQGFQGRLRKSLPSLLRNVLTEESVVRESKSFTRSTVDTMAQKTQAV
Experimental: (§1) Assays were performed as a ligand-induced BRET experiment similar to previously described^17, 31, 49. In brief, HEK293 cells were transiently transfected with either C5a1-Rluc8 and β-arrestin 2-Venus or C5a2-Venus and β-arrestin 2-Rluc8 or C5a1-Rluc8 and C5a2-Venus in a 100-mm dish. 24 h after transfection cells were collected and transferred to a 96-well white microplate (Corning, N.Y., USA) in phenol-red free DMEM containing 5% FBS and 25 mM HEPES (Life Technologies). Cells were allowed to settle for 24 h and then were incubated with 30 μM Enduren (Promega, Madison, Wis., USA) for 2 h at 37° C. and 5% CO2 to ensure that the substrate had reached equilibrium. Following incubation BRET baseline measurements were taken for 15 min then ligands were added to plate and BRET measurements were taken for a further 1 h at 37° C. using a POLARstar optima microplate reader (BMG Labtech, Ortenberg, Germany). Filtered light emissions were sequentially measured for 1 s in each of the following windows 460-490 nm and 520-550 nm, both before and following ligand addition. The ligand-induced BRET ratio was calculated by subtracting the ratio of 520-550 nm emission over the 460-490 nm emission for a vehicle-treated sample from a ligand-treated sample of the same aliquot of cells in triplicate. […]

[2] = target: T2, C3aR (Homo sapiens, UniProt Q16581); settings: up to a concentration of 100 μM, reference 27; cited from earlier work
T2 sequence (Q16581 1-482): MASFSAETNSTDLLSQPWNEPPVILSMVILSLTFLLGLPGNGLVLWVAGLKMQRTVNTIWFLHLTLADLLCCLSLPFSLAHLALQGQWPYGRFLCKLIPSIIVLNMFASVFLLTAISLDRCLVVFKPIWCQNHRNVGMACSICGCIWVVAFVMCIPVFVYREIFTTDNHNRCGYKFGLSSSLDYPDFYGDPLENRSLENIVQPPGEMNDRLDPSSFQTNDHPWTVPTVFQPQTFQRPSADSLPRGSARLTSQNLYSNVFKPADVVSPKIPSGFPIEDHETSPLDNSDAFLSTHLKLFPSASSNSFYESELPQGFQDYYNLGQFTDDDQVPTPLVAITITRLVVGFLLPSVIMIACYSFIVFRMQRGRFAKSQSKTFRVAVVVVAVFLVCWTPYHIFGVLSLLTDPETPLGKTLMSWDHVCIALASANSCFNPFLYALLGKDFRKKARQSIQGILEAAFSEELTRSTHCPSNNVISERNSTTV

[3] = target: T3, C5a1-C5a2 heteromer (Homo sapiens, UniProt P21730+Q9P296); test: BRET ligand-induced heteromer formation between C5a1 and C5a2; type: cell-based; settings: P32 or P59 100 μM
T3 construct: expressed in transfected cells; host or cells: HEK293 (transient)
Experimental: as §1

[4] = target: C5a2 (Homo sapiens, UniProt Q9P296); test: BRET C5a2-β-arrestin 2 recruitment assay in HEK293 cells; type: cell-based; set-up: expressed in transfected cells; host or cells: HEK293 (transient); settings: for efficacy for β-arrestin 2 recruitment relative to affinity for C5a2: EC50 versus Ki; for EC50: calculated at ~40 min after ligand addition; for type of activity for recruitment of β-arrestin 2 via C5a2: compared to C5a
Experimental: Assays were performed as a ligand-induced BRET experiment similar to previously described^17, 31, 49. In brief, HEK293 cells were transiently transfected with either C5a1-Rluc8 and β-arrestin 2-Venus or C5a2-Venus and β-arrestin 2-Rluc8 or C5a1-Rluc8 and C5a2-Venus in a 100-mm dish. 24 h after transfection cells were collected and transferred to a 96-well white microplate (Corning, N.Y., USA) in phenol-red free DMEM containing 5% FBS and 25 mM HEPES (Life Technologies). Cells were allowed to settle for 24 h and then were incubated with 30 μM Enduren (Promega, Madison, Wis., USA) for 2 h at 37° C. and 5% CO2 to ensure that the substrate had reached equilibrium. Following incubation BRET baseline measurements were taken for 15 min then ligands were added to plate and BRET measurements were taken for a further 1 h at 37° C. using a POLARstar optima microplate reader (BMG Labtech, Ortenberg, Germany). Filtered light emissions were sequentially measured for 1 s in each of the following windows 460-490 nm and 520-550 nm, both before and following ligand addition. The ligand-induced BRET ratio was calculated by subtracting the ratio of 520-550 nm emission over the 460-490 nm emission for a vehicle-treated sample from a ligand-treated sample of the same aliquot of cells in triplicate. The BRET ratio was calculated by subtracting the ratio of 520-550 nm emission over the 460-490 nm emission for a cell sample containing the C5a1-Rluc8 or β-arrestin 2-Rluc8 construct from a cell sample containing both the C5a1-Rluc8 and β-arrestin 2-Venus or C5a2-Venus and β-arrestin 2-Rluc8 or C5a1-Rluc8 and C5a2-Venus constructs. Peptides were also tested for ligand-induced β-arrestin 2 recruitment at 100 μM using DiscoveRx PathHunter kits for human C5a1 and C5a2 (DiscoveRx Corporation. Birmingham, UK), according to the manufacturer's instructions.

[5] = target: T1, C5a1; settings: up to a concentration of 100 μM, reference 27; cited from earlier work
[6] = target: T4, human C5a2 (Flp-In CHO-C5a2 membranes) (Homo sapiens, UniProt Q9P296); test: C5a2 receptor binding, scintillation proximity assay (125I-C5a displacement); settings: for Ki: inhibition of 125I-C5a binding to C5a2 membranes; for inhibition of 125I-C5a binding to C5a2 membranes, library screen: single concentration of 100 μM, compared to buffer control, P<0.05; for inhibition of 125I-C5a binding to C5aR2 membranes, full concentration response: up to a maximum concentration of 500 μM
T4 construct: expressed in transfected cells
Experimental: Membranes were prepared from Flp-In CHO-05a2 cells by a previously described method^46. Briefly, cells were washed with PBS, pH 7.4, and harvested into buffer (50 mM Tris-HCl, pH 7.4, 5 mM MgCl2, 1 mM CaCl2) before homogenizing with a Polytron homogenizer for 3 min on setting 22. Cells were centrifuged at 150×g for 5 min at 4° C. The supernatant was recovered and centrifuged at 22 000×g for 1 h at 4° C. Membrane pellets were then resuspended in 0.4 mL of ice-cold buffer (50 mM Tris-HCl, pH 7.4, 5 mM MgCl2, 1 mM CaCl2, containing 10% glycerol) with aliquots stored at −80° C. The protein concentration of the membrane preparation was determined by Bradford method^47.
C5a2 receptor binding studies were performed using a modification of a previously described scintillation proximity assay (SPA) method^48. Briefly, C5a2 SPA studies were performed in 96-well white isoplates with clear flat bottoms (Perkin Elmer, Waltham, Mass., USA). SPA beads (200 μg/well) were added, following the addition of various concentrations of competing ligands or buffer (6 pM to 500 μM) in a total volume of 80 μL of assay buffer (50 mM Tris-HCl, pH 7.4, 0.5% BSA, 5 mM MgCl2, 1 mM CaCl2). ^125I-C5a (˜20 pM) (specific activity, 2200 Ci mmol^−1) (Perkin Elmer) was added to C5a2 membrane preparations (˜2 μg/well). The final reaction volume per well comprised 20 μL of ligand/buffer, 20 μL of SPA beads, 20 μl of membrane and the assay was initiated by the addition of 20 μL of ^125I-C5a. The plate was then sealed using TopSeal-A (Perkin Elmer) sealing film and incubated with shaking for 1 h at room temperature. Radioligand binding was then assessed for 30 s/well using a 1450 Microbeta scintillation counter (Perkin Elmer).

C5a2, sequence (Q9P296 whole entry): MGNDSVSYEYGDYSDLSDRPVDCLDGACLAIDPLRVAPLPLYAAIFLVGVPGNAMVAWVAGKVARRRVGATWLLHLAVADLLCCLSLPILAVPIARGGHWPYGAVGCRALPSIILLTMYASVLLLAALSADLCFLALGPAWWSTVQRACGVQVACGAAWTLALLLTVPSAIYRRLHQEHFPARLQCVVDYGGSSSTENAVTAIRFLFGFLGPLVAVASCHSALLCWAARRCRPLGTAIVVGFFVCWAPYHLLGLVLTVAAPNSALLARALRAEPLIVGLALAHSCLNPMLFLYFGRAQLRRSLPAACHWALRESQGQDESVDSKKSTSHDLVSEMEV
C5a2, sequence (P32121 whole entry partner): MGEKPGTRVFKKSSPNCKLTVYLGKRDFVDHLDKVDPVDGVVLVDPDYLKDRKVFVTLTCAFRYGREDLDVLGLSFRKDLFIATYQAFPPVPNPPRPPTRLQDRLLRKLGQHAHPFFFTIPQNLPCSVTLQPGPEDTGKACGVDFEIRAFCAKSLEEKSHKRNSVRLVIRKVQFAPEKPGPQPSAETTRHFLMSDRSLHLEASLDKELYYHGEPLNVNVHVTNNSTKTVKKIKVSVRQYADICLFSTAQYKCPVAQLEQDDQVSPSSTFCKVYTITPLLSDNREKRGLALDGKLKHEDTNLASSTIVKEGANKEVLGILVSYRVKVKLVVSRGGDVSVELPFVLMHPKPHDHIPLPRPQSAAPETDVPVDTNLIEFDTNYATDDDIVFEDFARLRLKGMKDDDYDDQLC
T4 sequence (Q9P296 whole entry): as the sequence (Q9P296 whole entry) above
T3 sequence (Q9P296 whole entry, one chain of several): as the sequence (Q9P296 whole entry) above

Substance | β-arrestin 2 recruitment via C5a1 [1] | activity (agonist or antagonist) at C3aR [2] | up-regulation of heteromer formation between C5a1-C5a2 [3] | C5a2-β-arrestin 2 BRET Recruitment (% of C5a) [4] | efficacy for β-arrestin 2 recruitment relative to affinity for C5a2 [4] | EC50 [4] | type of activity for recruitment of β-arrestin 2 via C5a2 [4] | activity (agonist or antagonist) at C5a1 [5] | Ki [6] | affinity for C5aR2 over C5aR1 ([6]; ratio of C5aR1 and C5aR2 affinities) | inhibition of 125I-C5a binding to C5a2 membranes, library screen [6] | inhibition of 125I-C5a binding to C5aR2 membranes, full concentration response [6]
Ac-LIRLWR-OH [Peptide P59, Ac-LIRLWR-OH] | Neither, P32 or P59 could recruit β-arrestin 2 via C5a1 | no activity | neither P32 or P59 were able to up-regulate heteromer formation | 52.9 % of C5a | ~6 fold | 7.6 ± 0.6 µM | partial agonists | no activity | 48 µM | ~10 fold | significant inhibition | dose-dependently inhibited
Ac-RHYPYWR-OH [Peptide P32, Ac-RHYPYWR-OH] | Neither, P32 or P59 could recruit β-arrestin 2 via C5a1 | no activity | neither P32 or P59 were able to up-regulate heteromer formation | 28.8 % of C5a | ~37 fold | 5.9 ± 3.4 µM | partial agonists | no activity | 223 µM | – | significant inhibition | dose-dependently inhibited

From patent US10280197B2, “Discovery of the first selective C5A receptor 2 (C5L2/C5AR2) ligands” (The Regents of the University of California, priority 2015, dated 2019)
